Results as given in patent US20050048007A1, “Plaque reducing composition” (INOBYS LTD., priority 2000, published 2005).
Converted amounts (≈) assume the structure as drawn.

Key:
Assay in all cases: MIC by serial dilutions in BHI broth (NCCLS)
Type in all cases: cell-based
S. mutans = details: Streptococcus mutans, 37.5 degrees C., 24 hr, turbidity
Excerpt: (§1) Efficacy of this delivery system was shown as follows: 1. Minimum Inhibitory Concentration (MIC)
(§2) High numbers of microorganisms inhabit the oral cavity. Aerobic and anerobic bacteria combine to produce plaque, the soft sticky film adhering to the surface of the teeth. These same bacteria produce sulfur compounds responsible for oral malodor. MIC studies are commonly used to evaluate the potential effectiveness of oral washes and rinses in reducing undesirable bacteria in the oral cavity.
(§3) This […] study evaluates and compares the minimum inhibitory concentration at which two antimicrobial preparations (Solutions A & B) prevent the growth of oral microorganisms recognized as typical of those responsible for plaque and oral malodor formation. Solution A represents Example 1 (above); solution B, 0.1% chlorhexidine, represents a bench mark for efficacy, in that it is commonly accepted and used by oral care professionals to reduce plaque and malodor causing microbes.
(§4) MICs were established using the method of serial dilutions in BHI broth as established by NCCLS (National Committee for Clinical Laboratory Standards). Viable isolates of select strains of oral microbes were obtained commercially and cultured for ongoing use in the study. Serial dilutions of each of the test solutions were added to test tubes containing cultures of each isolate in BHI broth. Tubes were incubated at 37.5 degrees C. for 24 hr. and evaluated for signs of microbial growth (turbidity). Blank tubes of BHI broth, with and without microbial inoculates, were concomitantly run as a control for process sterility and viability.

K. pneumonia = details: Klebsiella pneumoniae, 37.5 degrees C., 24 hr, turbidity
Excerpt: as §1, §2, §3, §4

A. viscosus = details: Actinomyces viscosus, 37.5 degrees C., 24 hr, turbidity
Excerpt: as §1, §2, §3, §4

S. sanguinis = details: Streptococcus sanguinis, 37.5 degrees C., 24 hr, turbidity
Excerpt: as §1, §2, §3, §4

S. sobrinus = details: Streptococcus sobrinus, 37.5 degrees C., 24 hr, turbidity
Excerpt: as §1, §2, §3, §4

V. atypica = details: 37.5 degrees C., 24 hr, turbidity
Excerpt: as §1, §2, §3, §4

- MIC (S. mutans): 320 µg/mL (≈ 633 µM)
- MIC (K. pneumonia): 650 µg/mL (≈ 1290 µM)
- MIC (A. viscosus): 320 µg/mL (≈ 633 µM)
- MIC (S. sanguinis): 80 µg/mL (≈ 158 µM)
- MIC (S. sobrinus): 80 µg/mL (≈ 158 µM)
- MIC (V. atypica): 160 µg/mL (≈ 317 µM)
Compound: [H]/N=C(\N/C(=N/[H])NCCCCCCNC(=N)NC(=N)Nc1ccc(Cl)cc1)Nc1ccc(Cl)cc1 [0.1% CHX, chlorhexidine]
